≈ marks a conversion by molar mass, not a printed value. Bridge positions count the residues as written; N and C are the ends. Square brackets hold non-standard residues; d marks the D form. Peptide text beside a SMILES is read from it.
How the values were obtained:
[1] = Thioflavin T aggregation in LUVs; type: physicochemical; settings: tested 5–50 μM, 25 °C, pH 7.4, ThT emission 482 nm; for peptide concentration at which oligomerization (ThT fluorescence plateau) was observed: DOPE/DOPG/CL (63/23/12) LUVs; for peptide concentration at which aggregation (increase of ThT fluorescence) was observed: DOPG/CL (58/42) LUVs
From the text: We used large unilamellar vesicles (LUVs) made of phosphatidylethanolamine (DOPE), phosphatidylglycerol (DOPG), and cardiolipin (CL) (63/23/12) to mimic lipid composition of the cytoplasmic membrane of Gram-negative bacteria. Gram-positive membranes were otherwise mimicked using LUVs made of DOPG and CL (58/42).
TEXT PRINTED IN THE PICTURE: (c) 9: DOPG/CL mimicking Gram-positive membrane: θ222/ θ208: 1.7 | (c) 12: DOPG/CL mimicking Gram-positive membrane: θ222/ θ208: 2.6 | (c) 17: DOPG/CL mimicking Gram-positive membrane: θ222/ θ208: 1.9 | (f) 9: DOPE/DOPG/CL mimicking Gram-negative membrane: θ222/ θ208: 1.8 | (f) 12: DOPE/DOPG/CL mimicking Gram-negative membrane: θ222/ θ208: 2.1 | (f) 17: DOPE/DOPG/CL mimicking Gram-negative membrane: θ222/ θ208: 1.7
The fluorescent dye Thioflavin T (ThT) is widely used to quantify peptide aggregation in the presence of bacterial membranes represented by LUVs (Gram-positive, DOPG/CL, 58/42 ratio in moles; Gram-negative DOPG/DOPE/CL, 63/23/12 ratio in moles). Once lipid films were prepared as described above, they were hydrated with 100 mM NaCl, 10 mM Tris-HCl, […] ThT buffer, pH = 7.4, vortexed for 1 h, freeze-thawed six times, and extruded 10 times through polycarbonate membranes with 0.1 μm diameter pores.[80] Peptides were dissolved in water to have a stock solution of 2 mM. Peptide aggregation was quantified by treating LUVs with peptide concentrations of 5, 10, 15, 20, 30, and 50 μM. Fluorescence was measured before and after the addition of peptide at 25 °C using a Varian Cary Eclipse fluorescence spectrometer. ThT fluorescence emission was measured at 482 nm (slit width, 5 nm) after excitation at 450 nm (slit width, 10 nm). In the presence of aggregated peptides, ThT combines with them giving an excitation maximum at 450 nm and an increased emission at 482 nm.[62] Peptide aggregation was calculated as %A = (Ff – F0)/(Fmax – F0) × 100, where Ff indicates the value of fluorescence after peptide addition, F0 is the initial fluorescence in the absence of peptide, and Fmax is the fluorescence maximum obtained immediately after peptide addition.

B. megaterium Bm11 = type: cell-based, Bacillus megaterium
How it was run: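 MICs were determined by broth microdilution, with bacteria at a final 1 × 10^6 CFU/mL and peptides tested from 100 to 0.78 μM.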

[2] = Peptide aggregation in LPS (ThT fluorescence); type: physicochemical; settings: peptide 20 μM, LPS 1 mg/mL, ThT 25 μM, 1 h incubation, ThT emission 482 nm
Description: The peptides were incubated with LPS (1 mg/mL) at a concentration of 20 μM, and ThT (25 μM) was used as a fluorophore to measure aggregation.
Figure 5 Aggregate formation in the interaction between peptides 9 (a), 12 (b), and 17 (c) (20 μM) and LPS (1 mg/mL) monitored by ThT fluorescence (25 μM). Peptide alone and ThT alone were used as controls.
After 1 h, we evaluated the peptide aggregation measuring ThT fluorescence emission at 482 nm (slit width, 5 nm) after excitation at 450 nm (slit width, 10 nm). ThT spectra at 25 μM, and peptide alone at 20 μM were carried out as control.

[3] = tested on: HaCaT cells (human immortalized keratinocytes); assay: Cytotoxicity, MTT assay; type: cell-based
Description: In particular, the cytotoxicity was evaluated by the 3-(4,5-dimethylthiazol-2-yl)-2,5-diphenyltetrazolium bromide (MTT) assay and is expressed as the percentage of viability of peptide-treated cells compared to that of untreated control cells. As expected, after 2 and 24 h treatments, the cell viability decreased in a concentration-dependent manner for all peptides (Figure 2).
Figure 2 Viability of peptide-treated HaCaT cells evaluated by MTT assay at 2 h (a) and 24 h (b). All data are expressed as a percentage with respect to the untreated control cells and are the mean of three independent experiments ± standard error of the mean (SEM).
The human immortalized keratinocytes HaCaT cells (AddexBio, San Diego, CA) were cultured in Dulbecco’s modified Eagle’s medium containing 4 mM glutamine (DMEMg), supplemented with 10% heat-inactivated fetal bovine serum (FBS) and 0.1 mg/mL of penicillin and streptomycin, at 37 °C and 5% CO2, in 25 or 75 cm^2 flasks.
The quantification of cell viability was performed by the in vitro MTT [3-(4,5-dimethylthiazol-2-yl)-2,5-diphenyltetrazolium bromide] assay, as previously reported,[77] measuring the conversion of the soluble yellow dye MTT to insoluble purple formazan by mitochondrial dehydrogenases. More precisely, 4 × 10^4 HaCaT cells, suspended in DMEMg supplemented with 2% FBS without antibiotics, were plated in each well of the 96-well plate. After overnight incubation at 37 °C and 5% CO2, the medium of each well was replaced by DMEMg containing the peptide at different concentrations, as indicated. Controls were HaCaT cells not treated with the peptide. After 2 and 24 h of incubation at 37 °C and 5% CO2, the medium was discarded; 0.5 mg/mL of MTT in Hank’s buffer was added to each well, and the plate was incubated for further 4 h. Acidified isopropanol was then added to dissolve formazan crystals, and the absorbance of each well at 570 nm was measured using a microplate reader (Infinite M200; Tecan, Salzburg, Austria). The purple color intensity is directly proportional to the number of viable cells, which was expressed as a percentage compared to that of untreated control cells (100%).

Row | Structure (SMILES) | peptide concentration at which oligomerization (ThT fluorescence plateau) was observed [1] [µM] | peptide concentration at which aggregation (increase of ThT fluorescence) was observed [1] [µM] | MIC B. megaterium Bm11 (B. megaterium Bm11) [µM] | aggregation in the presence of LPS [2] | HaCaT cell viability ([3]; 2 h treatment, 25 μM, vs untreated control, mean of three independent experiments) | HaCaT cell viability ([3]; 2 h treatment, 50 μM, vs untreated control, mean of three independent experiments) | HaCaT cell viability ([3]; 24 h treatment (sentence continues from 50 μM), vs untreated control) | HaCaT cell viability ([3]; 25 μM, same profile after either 2 or 24 h) [%] | HaCaT cell viability ([3]; 50 μM, same profile after either 2 or 24 h) [%]
1 | CC[C@H](C)[C@H](NC(=O)[C@H](CCCNC(=N)N)NC(=O)[C@@H]1CCCCn2cc(nn2)C[C@H](NC(=O)[C@H](Cc2ccccc2)NC(=O)[C@H](Cc2c[nH]c3ccccc23)NC(=O)[C@@H]2CCCN2C(=O)[C@@H](NC(=O)[C@@H](N)Cc2ccccc2)C(C)C)C(=O)N[C@@H](CCCCN)C(=O)N[C@@H](Cc2ccccc2)C(=O)NC(CC(C)C)C(=O)N1)C(=O)N[C@@H](CC(C)C)C(N)=O (stereo in doubt) [compound 17] | 10 | 50 | 1.56 (≈ 2.67 µg/mL) | higher ability to aggregate | 60–70% | less than 40% | less than 20% |  | 
2 | CC[C@H](C)[C@H](NC(=O)[C@H](CCCNC(=N)N)NC(=O)[C@@H]1CCC(=O)NCCCC[C@H](NC(=O)[C@H](Cc2ccccc2)NC(=O)[C@H](Cc2c[nH]c3ccccc23)NC(=O)[C@@H]2CCCN2C(=O)[C@@H](NC(=O)[C@@H](N)Cc2ccccc2)C(C)C)C(=O)N[C@@H](CCCCN)C(=O)N[C@@H](Cc2ccccc2)C(=O)N[C@H](CC(C)C)C(=O)N1)C(=O)N[C@@H](CC(C)C)C(N)=O [compound 12] (H-FVPWFKKF[dL]ERIL-NH2; lactam 6-10) | 10 | 30 | 1.56 (≈ 2.66 µg/mL) | lowest aggregation |  |  |  | 94 | 60

From article PMC8389922, “First-in-Class Cyclic Temporin L Analogue: Design, Synthesis, and Antimicrobial Assessment” (Journal of Medicinal Chemistry, 2021)
